Data as given in publication PMC4769088, “Antifungal Activity and Action Mechanism of Histatin 5-Halocidin Hybrid Peptides against Candida ssp” (PLoS ONE, 2016).
Where a SMILES comes first, the peptide text is derived from it. Bridges are numbered along the chain shown (N, C = ends). Roman numbers before positions name the chains, in order. Where no end group is shown, it is not given here.

What was measured:
[1] = system: laminarin (β-1,3-glucan polymer), C. albicans cell wall component; experiment: Binding/radial diffusion assay with laminarin; format: cell-based; settings: peptide final 180 μg/ml, pre-incubated 2 h at 37°C, radial diffusion assay
Protocol: The candidacidal activities of the peptides were tested by using standard microdilution plate assays, radial diffusion assays and broth dilution assay slightly modified from the procedure recommended by the National Committee for Clinical Laboratory Standards. For the candidacidal assays, C. albicans cells were grown in YPD medium and washed twice with 10 mM sodium phosphate buffer (NaPB; Na2HPO4, NaH2PO4, pH 7.4). The cells (1 x 10^6) were then mixed with different concentrations of peptides and incubated at 30°C with constant shaking for 60 min. For energy depletion experiments, cells were pre-incubated with 10 mM NaPB containing 5 mM NaN3 at 30°C for 60 min before the addition of peptides. The cell suspensions were diluted in 10 mM NaPB and aliquots of 500 cells were spread onto YPD agar plates then incubated for 24 h at 30°C to visualize the surviving colonies. Cell survival was expressed as a percentage of that for the control, and the loss of viability was calculated as [1 x (number of colonies from peptide-treated cells/number of colonies from control cells)] x 100. Candidacidal assays were performed in triplicate. For the radial diffusion assay, C. albicans cells were grown in YPD medium overnight and washed twice with 10 mM NaPB. Washed yeast-phase C. albicans cells (1 x 10^6 CFU) were trapped in thin underlay gels containing 9 mM sodium phosphate, 1 mM sodium citrate buffer, 1% (wt/vol) agarose (A6013; Sigma), and 0.3 mg of Sabouraud dextrose broth (Difco)/ml. After incubation at 37°C for 3 h, a 10 ml overlay gel of 1% agarose and 6% Sabouraud dextrose broth was poured on the underlay gel and then the plates were incubated overnight at 37°C. The clear-zone diameters were measured to the nearest 0.1 mm and graphed against the peptide concentration. Zone diameters were expressed in units (0.1 mm = 1 unit). For the broth dilution assay, the Candida strains were cultured in LYM broth for 18 h at 30°C. The numbers of yeasts were counted using a hemocytometer. Stock peptide solutions were prepared to a concentration of 320 μg/ml in distilled water, and were then serially diluted twofold, to 5 μg/ml. 100 μl aliquots of the diluted culture media containing candida cells (1 x 10^3) were dispensed into the wells of 96-well polypropylene microtiter plates (Costar 3879, Corning, NY), to which peptide solution (11 μl) was then added. […] The antifungal activities were evaluated after 24 h of incubation at 30°C by the observation of visible turbidity the wells. The MIC values were expressed as intervals (a–b), with a representing the highest tested concentration at which microbes continue to grow, and b representing the lowest concentration at which growth inhibition could be detected.
Binding of hybrid peptides to the surface of C. albicans cells was examined by assessing the inhibitory effect of fungal cell wall components on the antimicrobial activity of the hybrid peptides. 20 μl of a pre-determined concentration of the peptides was added to 80 μl of each polysaccharide (0.07–40 mg/ml in 10 mM NaPB) including laminarin (β-1,3-glucan polymer; Sigma), pustulan (β-1,6-glucan polymer; Calbiochem) or mannan (mannose polymer; Sigma) and incubated for 2 h at 37°C. The inhibitory effects of the polysaccharides on the antimicrobial activity of the peptides were assessed by radial diffusion assay as described above. […]

Candida cells = experiment: Candidacidal activity in energy depleted (azide) cells; format: cell-based, Candida albicans; settings: cells pre-incubated for 60 min in 5 mM NaN3 at 30°C, colony count assay
Protocol: The candidacidal activities of the peptides were tested by using standard microdilution plate assays, radial diffusion assays and broth dilution assay slightly modified from the procedure recommended by the National Committee for Clinical Laboratory Standards. For the candidacidal assays, C. albicans cells were grown in YPD medium and washed twice with 10 mM sodium phosphate buffer (NaPB; Na2HPO4, NaH2PO4, pH 7.4). The cells (1 x 10^6) were then mixed with different concentrations of peptides and incubated at 30°C with constant shaking for 60 min. For energy depletion experiments, cells were pre-incubated with 10 mM NaPB containing 5 mM NaN3 at 30°C for 60 min before the addition of peptides. The cell suspensions were diluted in 10 mM NaPB and aliquots of 500 cells were spread onto YPD agar plates then incubated for 24 h at 30°C to visualize the surviving colonies. Cell survival was expressed as a percentage of that for the control, and the loss of viability was calculated as [1 x (number of colonies from peptide-treated cells/number of colonies from control cells)] x 100. Candidacidal assays were performed in triplicate. For the radial diffusion assay, C. albicans cells were grown in YPD medium overnight and washed twice with 10 mM NaPB. Washed yeast-phase C. albicans cells (1 x 10^6 CFU) were trapped in thin underlay gels containing 9 mM sodium phosphate, 1 mM sodium citrate buffer, 1% (wt/vol) agarose (A6013; Sigma), and 0.3 mg of Sabouraud dextrose broth (Difco)/ml. After incubation at 37°C for 3 h, a 10 ml overlay gel of 1% agarose and 6% Sabouraud dextrose broth was poured on the underlay gel and then the plates were incubated overnight at 37°C. The clear-zone diameters were measured to the nearest 0.1 mm and graphed against the peptide concentration. Zone diameters were expressed in units (0.1 mm = 1 unit). For the broth dilution assay, the Candida strains were cultured in LYM broth for 18 h at 30°C. The numbers of yeasts were counted using a hemocytometer. Stock peptide solutions were prepared to a concentration of 320 μg/ml in distilled water, and were then serially diluted twofold, to 5 μg/ml. 100 μl aliquots of the diluted culture media containing candida cells (1 x 10^3) were dispensed into the wells of 96-well polypropylene microtiter plates (Costar 3879, Corning, NY), to which peptide solution (11 μl) was then added. In the experiments conducted to assess the candidacidal activity of peptides in the presence of salt, we used LYM supplemented with 150 mM NaCl for the culture medium, which was mixed with the peptide solution. The antifungal activities were evaluated after 24 h of incubation at 30°C by the observation of visible turbidity the wells. The MIC values were expressed as intervals (a–b), with a representing the highest tested concentration at which microbes continue to grow, and b representing the lowest concentration at which growth inhibition could be detected.
To confirm the killing effect of the peptides, washed Candida cells (1 × 10^7 cells/ml) were treated with the peptides and propidium iodide (PI) was added. For energy depletion experiments, cells were pre-incubated with 10 mM NaPB containing 5 mM NaN3 at 30°C for 60 min before the addition of peptides. Propidium iodide (PI) uptake was measured using a multi reader and calculated with the formula [propidium iodide (PI) uptake value of peptide-treated cells—propidium iodide (PI) value of control cells]
Fig 6 The effects of azide on killing activity of peptides. […]

[2] = system: pustulan (β-1,6-glucan polymer), C. albicans cell wall component; experiment: Binding/radial diffusion assay with pustulan; format: cell-based; settings: peptide final 180 μg/ml, pre-incubated 2 h at 37°C, radial diffusion assay
Protocol: The candidacidal activities of the peptides were tested by using standard microdilution plate assays, radial diffusion assays and broth dilution assay slightly modified from the procedure recommended by the National Committee for Clinical Laboratory Standards. For the candidacidal assays, C. albicans cells were grown in YPD medium and washed twice with 10 mM sodium phosphate buffer (NaPB; Na2HPO4, NaH2PO4, pH 7.4). The cells (1 x 10^6) were then mixed with different concentrations of peptides and incubated at 30°C with constant shaking for 60 min. For energy depletion experiments, cells were pre-incubated with 10 mM NaPB containing 5 mM NaN3 at 30°C for 60 min before the addition of peptides. The cell suspensions were diluted in 10 mM NaPB and aliquots of 500 cells were spread onto YPD agar plates then incubated for 24 h at 30°C to visualize the surviving colonies. Cell survival was expressed as a percentage of that for the control, and the loss of viability was calculated as [1 x (number of colonies from peptide-treated cells/number of colonies from control cells)] x 100. […] The clear-zone diameters were measured to the nearest 0.1 mm and graphed against the peptide concentration. […] The numbers of yeasts were counted using a hemocytometer. […] The antifungal activities were evaluated after 24 h of incubation at 30°C by the observation of visible turbidity the wells. […]

Compound	laminarin concentration at which antimicrobial activity was drastically decreased by pre-incubation [1]	antimicrobial activities in energy depleted cells (Candida cells)	pustulan concentration at which activity began to decrease [2]
C[C@H](NC(=O)[C@H](Cc1c[nH]cn1)NC(=O)[C@H](CO)NC(=O)[C@@H](N)CC(=O)O)C(=O)N[C@@H](CCCCN)C(=O)N[C@@H](CCCNC(=N)N)C(=O)N[C@@H](Cc1c[nH]cn1)C(=O)N[C@@H](Cc1c[nH]cn1)C(=O)NCC(=O)N[C@@H](Cc1ccc(O)cc1)C(=O)N[C@@H](CCCCN)C(=O)N[C@@H](CCCNC(=N)N)C(=O)N[C@@H](CCCCN)C(=O)N[C@@H](Cc1ccccc1)C(=O)N[C@@H](Cc1c[nH]cn1)C(=O)N[C@@H](CCC(=O)O)C(=O)N[C@@H](CCCCN)C(=O)N[C@@H](Cc1c[nH]cn1)C(=O)N[C@@H](Cc1c[nH]cn1)C(=O)N[C@@H](CO)C(=O)N[C@@H](Cc1c[nH]cn1)C(=O)N[C@@H](CCCNC(=N)N)C(=O)NCC(=O)N[C@@H](Cc1ccc(O)cc1)C(=O)O [Hst 5, Histatin 5]	2.5 mg/mL	significantly reduced	–
CC(C)C[C@H](NC(=O)CNC(=O)[C@H](Cc1c[nH]cn1)NC(=O)[C@H](Cc1c[nH]cn1)NC(=O)[C@H](CC(C)C)NC(=O)[C@H](CC(C)C)NC(=O)[C@H](C)NC(=O)[C@H](CC(N)=O)NC(=O)[C@H](CC(C)C)NC(=O)[C@@H](N)Cc1c[nH]c2ccccc12)C(=O)N[C@@H](CC(N)=O)C(=O)N[C@@H](CSSC[C@H](NC(=O)[C@H](CC(N)=O)NC(=O)[C@H](CC(C)C)NC(=O)CNC(=O)[C@H](Cc1c[nH]cn1)NC(=O)[C@H](Cc1c[nH]cn1)NC(=O)[C@H](CC(C)C)NC(=O)[C@H](CC(C)C)NC(=O)[C@H](C)NC(=O)[C@H](CC(N)=O)NC(=O)[C@H](CC(C)C)NC(=O)[C@@H](N)Cc1c[nH]c2ccccc12)C(=O)N[C@@H](C)C(=O)N[C@@H](CCCCN)C(=O)NCC(=O)N[C@H](C(=O)N[C@@H](CC(C)C)C(=O)N[C@@H](C)C(N)=O)C(C)C)C(=O)N[C@@H](C)C(=O)N[C@@H](CCCCN)C(=O)NCC(=O)N[C@H](C(=O)N[C@@H](CC(C)C)C(=O)N[C@@H](C)C(N)=O)C(C)C [di-18Hc, reference compound] (I: H-WLNALLHHGLNCAKGVLA-NH2 / II: H-WLNALLHHGLNCAKGVLA-NH2; disulfide I:12-II:12 (inferred); N-terminus assumed)	0.3 mg/mL	not inhibited	20 mg/mL
CC(C)C[C@H](NC(=O)CNC(=O)[C@H](Cc1c[nH]cn1)NC(=O)[C@H](Cc1c[nH]cn1)NC(=O)[C@H](CCCNC(=N)N)NC(=O)[C@H](CCCCN)NC(=O)[C@H](C)N)C(=O)N[C@@H](CC(N)=O)C(=O)N[C@@H](CSSC[C@H](NC(=O)[C@H](CC(N)=O)NC(=O)[C@H](CC(C)C)NC(=O)CNC(=O)[C@H](Cc1c[nH]cn1)NC(=O)[C@H](Cc1c[nH]cn1)NC(=O)[C@H](CCCNC(=N)N)NC(=O)[C@H](CCCCN)NC(=O)[C@H](C)N)C(=O)N[C@@H](C)C(=O)N[C@@H](CCCCN)C(=O)N[C@@H](Cc1ccccc1)C(=O)N[C@@H](Cc1c[nH]cn1)C(N)=O)C(=O)N[C@@H](C)C(=O)N[C@@H](CCCCN)C(=O)N[C@@H](Cc1ccccc1)C(=O)N[C@@H](Cc1c[nH]cn1)C(N)=O [di-PH2] (I: H-AKRHHGLNCAKFH-NH2 / II: H-AKRHHGLNCAKFH-NH2; disulfide I:9-II:9 (inferred); N-terminus assumed)	5 mg/mL	significantly reduced	–
CC(C)C[C@H](NC(=O)[C@@H](N)Cc1c[nH]c2ccccc12)C(=O)N[C@@H](CC(N)=O)C(=O)N[C@@H](C)C(=O)N[C@@H](CCCCN)C(=O)N[C@@H](CCCNC(=N)N)C(=O)N[C@@H](Cc1c[nH]cn1)C(=O)N[C@@H](Cc1c[nH]cn1)C(=O)NCC(=O)N[C@@H](Cc1ccc(O)cc1)C(=O)N[C@@H](CCCCN)C(=O)N[C@@H](CSSC[C@H](NC(=O)[C@H](CCCCN)NC(=O)[C@H](Cc1ccc(O)cc1)NC(=O)CNC(=O)[C@H](Cc1c[nH]cn1)NC(=O)[C@H](Cc1c[nH]cn1)NC(=O)[C@H](CCCNC(=N)N)NC(=O)[C@H](CCCCN)NC(=O)[C@H](C)NC(=O)[C@H](CC(N)=O)NC(=O)[C@H](CC(C)C)NC(=O)[C@@H](N)Cc1c[nH]c2ccccc12)C(=O)N[C@@H](CCCCN)C(=O)N[C@@H](Cc1ccccc1)C(=O)N[C@@H](Cc1c[nH]cn1)C(N)=O)C(=O)N[C@@H](CCCCN)C(=O)N[C@@H](Cc1ccccc1)C(=O)N[C@@H](Cc1c[nH]cn1)C(N)=O [di-WP2] (I: H-WLNAKRHHGYKCKFH-NH2 / II: H-WLNAKRHHGYKCKFH-NH2; disulfide I:12-II:12 (inferred); N-terminus assumed)	1.25 mg/mL	not inhibited	20 mg/mL
AKRHHGYKRKFH-NH2 [P113]	5 mg/mL	significantly reduced	–
